According to patent publication US20020137929A1, “1 - (3-heterocyclylphenyl) isothiourea, -isourea, -guanidine and -amidine herbicidal agents” (Intellectual Property Department, BASF Aktiengesellschaft, priority 1998, published 2002):

Legend:
[1] = system: ECHORC (Watergrass (Calif.)); test: Preemergence weed control under flooded paddy conditions; format: in vivo, Echinochloa oryzoides; settings: rated 3-4 weeks after treatment
Procedure, shortened: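 Seeds or propagules sown in top 0.5 cm of silt loam soil, flooded 1.5 to 3 cm above surface throughout. Compound in 50/50 v/v aqueous/acetone pipetted into flood water at about 0.0313 to 0.500 kg/ha. Visual 0-9 rating versus control after three to four weeks in greenhouse.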

[2] = system: IPOHE (Morningglory, Ivyleaf); test: Postemergence herbicidal evaluation; format: in vivo, Ipomoea hederacea; settings: postemergence
Procedure, shortened: (§1)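 Scores (0–9) reflect plant stand, vigor, malformation, size, chlorosis and general appearance relative to control, read 4 to 5 weeks after treatment and averaged where tests were repeated. Application: about 0.0156–0.500 kg/ha sprayed at 40 psi onto two-week seedlings.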

[3] = system: TRZAWR (Wheat, Winter, cv Riband); test: Postemergence herbicidal evaluation; format: in vivo, Triticum aestivum; settings: postemergence
Procedure, shortened: as §1

ECHCG (Barnyardgrass) = test: Preemergence herbicidal evaluation; format: in vivo, Echinochloa crus-galli; settings: rated 4-5 weeks after treatment
Procedure, shortened: (§2)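 In this greenhouse assay, monocot and dicot seeds are planted in soil and treated prior to emergence with an aqueous acetone spray (about 0.0156-0.500 kg/ha). Plants are assessed visually against control on a 0-9 scale after 4-5 weeks.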

[4] = system: IPOHE (Morningglory, Ivyleaf); test: Preemergence herbicidal evaluation; format: in vivo, Ipomoea hederacea; settings: rated 4-5 weeks after treatment
Procedure, shortened: as §2

SETVI (Foxtail, Green) = test: Preemergence herbicidal evaluation; format: in vivo, Setaria viridis; settings: rated 4-5 weeks after treatment
Procedure, shortened: as §2

[5] = system: TRZAWR (Wheat, Winter, cv Riband); test: Preemergence herbicidal evaluation; format: in vivo, Triticum aestivum; settings: rated 4-5 weeks after treatment
Procedure, shortened: as §2

MOOVA (Monochoria) = test: Preemergence weed control under flooded paddy conditions; format: in vivo, Monochoria vaginalis; settings: rated 3-4 weeks after treatment
Procedure, shortened: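 Ratings on a 0-9 visual scale cover stand, vigor, malformation, size, chlorosis and overall appearance relative to a control, taken three to four weeks post-treatment. Application was into flood water over freshly sown silt loam at roughly 0.0313 to 0.500 kg/ha.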

ORYSAT (Rice, Tebonnet) = test: Preemergence herbicidal evaluation; format: in vivo, Oryza sativa, (L.) Tebonnet; settings: rated 4-5 weeks after treatment
Procedure, shortened: as §2

[6] = system: CHEAL (Lambsquarters, Common); test: Preemergence herbicidal evaluation; format: in vivo, Chenopodium album; settings: rated 4-5 weeks after treatment
Procedure, shortened: as §2

ABUTH (Velvetleaf) = test: Postemergence herbicidal evaluation; format: in vivo, Abutilon theophrasti; settings: postemergence
Procedure, shortened: as §1

CCOC(=O)CN1C(=O)C(C(=O)OC(C)(C)C)SC1=Nc1cc(-n2c(=O)cc(C(F)(F)F)n(C)c2=O)c(F)cc1Cl (stereo not shown) [Compound 167, 5-Carboxy-2-{{2-chloro-5-[3,6-dihydro-3-methyl-2,6-dioxo-4-(trifluoromethyl)-1(2H)-pyrimidinyl]-4-fluorophenyl}imino}-4-oxo-3-thiazolidineacetic acid, 5-tert-butyl ethyl ester]
6.0: Preemergence herbicidal rating ECHCG (ECHCG (Barnyardgrass); 0.0625 kg/ha) | Preemergence herbicidal rating ORYSAT (ORYSAT (Rice, Tebonnet); 0.5000 kg/ha)
4.5: Herbicidal rating TRZAWR ([3]; rate 0.1250 kg/ha)
8.0: Preemergence herbicidal rating ECHCG (ECHCG (Barnyardgrass); 0.5000 kg/ha)
0.0: Preemergence herbicidal rating ECHCG (ECHCG (Barnyardgrass); 0.0156 kg/ha) | Preemergence herbicidal rating ECHCG (ECHCG (Barnyardgrass); 0.0313 kg/ha) | Preemergence herbicidal rating IPOHE ([4]; 0.0156 kg/ha) | Preemergence herbicidal rating IPOHE ([4]; 0.0313 kg/ha) | Preemergence herbicidal rating TRZAWR ([5]; 0.0156 kg/ha) | Preemergence herbicidal rating TRZAWR ([5]; 0.0313 kg/ha) | Preemergence herbicidal rating ORYSAT (ORYSAT (Rice, Tebonnet); 0.0156 kg/ha) | Preemergence herbicidal rating ORYSAT (ORYSAT (Rice, Tebonnet); 0.0313 kg/ha)
9.0: herbicidal effect rating, ECHORC ([1]; 0.0313 kg/ha) | herbicidal effect rating, ECHORC ([1]; 0.0625 kg/ha) | herbicidal effect rating, ECHORC ([1]; 0.1250 kg/ha) | herbicidal effect rating, ECHORC ([1]; 0.2500 kg/ha) | Herbicidal rating IPOHE ([2]; rate 0.0156 kg/ha) | Herbicidal rating IPOHE ([2]; rate 0.0313 kg/ha) | Herbicidal rating IPOHE ([2]; rate 0.0625 kg/ha) | Herbicidal rating IPOHE ([2]; rate 0.1250 kg/ha) | Preemergence herbicidal rating ECHCG (ECHCG (Barnyardgrass); 0.1250 kg/ha) | Preemergence herbicidal rating ECHCG (ECHCG (Barnyardgrass); 0.2500 kg/ha) | Preemergence herbicidal rating IPOHE ([4]; 0.2500 kg/ha) | Preemergence herbicidal rating IPOHE ([4]; 0.5000 kg/ha) | Preemergence herbicidal rating SETVI (SETVI (Foxtail, Green); 0.0625 kg/ha) | Preemergence herbicidal rating SETVI (SETVI (Foxtail, Green); 0.1250 kg/ha) | Preemergence herbicidal rating SETVI (SETVI (Foxtail, Green); 0.2500 kg/ha) | Preemergence herbicidal rating SETVI (SETVI (Foxtail, Green); 0.5000 kg/ha) | herbicidal effect rating, MOOVA (MOOVA (Monochoria); 0.0313 kg/ha) | herbicidal effect rating, MOOVA (MOOVA (Monochoria); 0.0625 kg/ha) | herbicidal effect rating, MOOVA (MOOVA (Monochoria); 0.1250 kg/ha) | herbicidal effect rating, MOOVA (MOOVA (Monochoria); 0.2500 kg/ha) | Preemergence herbicidal rating CHEAL ([6]; 0.0625 kg/ha) | Preemergence herbicidal rating CHEAL ([6]; 0.1250 kg/ha) | Preemergence herbicidal rating CHEAL ([6]; 0.2500 kg/ha) | Preemergence herbicidal rating CHEAL ([6]; 0.5000 kg/ha) | Herbicidal rating ABUTH (ABUTH (Velvetleaf); rate 0.0156 kg/ha) | Herbicidal rating ABUTH (ABUTH (Velvetleaf); rate 0.0313 kg/ha) | Herbicidal rating ABUTH (ABUTH (Velvetleaf); rate 0.0625 kg/ha) | Herbicidal rating ABUTH (ABUTH (Velvetleaf); rate 0.1250 kg/ha)
7.0: Preemergence herbicidal rating SETVI (SETVI (Foxtail, Green); 0.0313 kg/ha) | Preemergence herbicidal rating CHEAL ([6]; 0.0156 kg/ha) | Preemergence herbicidal rating CHEAL ([6]; 0.0313 kg/ha)
3.0: Preemergence herbicidal rating IPOHE ([4]; 0.1250 kg/ha) | Preemergence herbicidal rating TRZAWR ([5]; 0.1250 kg/ha)
2.0: Preemergence herbicidal rating IPOHE ([4]; 0.0625 kg/ha)
1.0: Preemergence herbicidal rating TRZAWR ([5]; 0.0625 kg/ha) | Preemergence herbicidal rating ORYSAT (ORYSAT (Rice, Tebonnet); 0.0625 kg/ha)
5.0: Preemergence herbicidal rating SETVI (SETVI (Foxtail, Green); 0.0156 kg/ha) | Preemergence herbicidal rating TRZAWR ([5]; 0.5000 kg/ha) | Preemergence herbicidal rating ORYSAT (ORYSAT (Rice, Tebonnet); 0.2500 kg/ha)
4.0: Herbicidal rating TRZAWR ([3]; rate 0.0156 kg/ha) | Herbicidal rating TRZAWR ([3]; rate 0.0313 kg/ha) | Herbicidal rating TRZAWR ([3]; rate 0.0625 kg/ha) | Preemergence herbicidal rating TRZAWR ([5]; 0.2500 kg/ha) | Preemergence herbicidal rating ORYSAT (ORYSAT (Rice, Tebonnet); 0.1250 kg/ha)

Cn1c(C(F)(F)F)cc(=O)n(-c2cc(N=C3SCC(=O)N3C3CCC3)c(Cl)cc2F)c1=O [Compound 168, 3-{4-Chloro-5-[(3-cyclobutyl-4-oxo-2-thiazolidinylidene)amino]-2-fluorophenyl}-1-methyl-6-(trifluoromethyl)-2,4(1H,3H)-pyrimidinedione]
5.0: Herbicidal rating IPOHE ([2]; rate 0.0156 kg/ha) | Preemergence herbicidal rating SETVI (SETVI (Foxtail, Green); 0.2500 kg/ha)
4.0: Herbicidal rating TRZAWR ([3]; rate 0.0625 kg/ha) | Preemergence herbicidal rating IPOHE ([4]; 0.2500 kg/ha)
0.0: herbicidal effect rating, ECHORC ([1]; 0.0313 kg/ha) | herbicidal effect rating, ECHORC ([1]; 0.0625 kg/ha) | herbicidal effect rating, ECHORC ([1]; 0.1250 kg/ha) | herbicidal effect rating, ECHORC ([1]; 0.2500 kg/ha) | Preemergence herbicidal rating ECHCG (ECHCG (Barnyardgrass); 0.0156 kg/ha) | Preemergence herbicidal rating ECHCG (ECHCG (Barnyardgrass); 0.0313 kg/ha) | Preemergence herbicidal rating ECHCG (ECHCG (Barnyardgrass); 0.0625 kg/ha) | Preemergence herbicidal rating ECHCG (ECHCG (Barnyardgrass); 0.1250 kg/ha) | Preemergence herbicidal rating ECHCG (ECHCG (Barnyardgrass); 0.2500 kg/ha) | Preemergence herbicidal rating IPOHE ([4]; 0.0156 kg/ha) | Preemergence herbicidal rating IPOHE ([4]; 0.0313 kg/ha) | Preemergence herbicidal rating IPOHE ([4]; 0.0625 kg/ha) | Preemergence herbicidal rating SETVI (SETVI (Foxtail, Green); 0.0156 kg/ha) | Preemergence herbicidal rating SETVI (SETVI (Foxtail, Green); 0.0313 kg/ha) | Preemergence herbicidal rating SETVI (SETVI (Foxtail, Green); 0.0625 kg/ha) | Preemergence herbicidal rating SETVI (SETVI (Foxtail, Green); 0.1250 kg/ha) | Preemergence herbicidal rating TRZAWR ([5]; 0.0156 kg/ha) | Preemergence herbicidal rating TRZAWR ([5]; 0.0313 kg/ha) | Preemergence herbicidal rating TRZAWR ([5]; 0.0625 kg/ha) | Preemergence herbicidal rating TRZAWR ([5]; 0.1250 kg/ha) | Preemergence herbicidal rating TRZAWR ([5]; 0.2500 kg/ha) | Preemergence herbicidal rating ORYSAT (ORYSAT (Rice, Tebonnet); 0.0156 kg/ha) | Preemergence herbicidal rating ORYSAT (ORYSAT (Rice, Tebonnet); 0.0313 kg/ha) | Preemergence herbicidal rating ORYSAT (ORYSAT (Rice, Tebonnet); 0.0625 kg/ha) | Preemergence herbicidal rating ORYSAT (ORYSAT (Rice, Tebonnet); 0.1250 kg/ha) | Preemergence herbicidal rating ORYSAT (ORYSAT (Rice, Tebonnet); 0.2500 kg/ha)
3.5: Herbicidal rating TRZAWR ([3]; rate 0.0156 kg/ha) | Herbicidal rating TRZAWR ([3]; rate 0.0313 kg/ha)
3.0: Preemergence herbicidal rating IPOHE ([4]; 0.1250 kg/ha) | Preemergence herbicidal rating CHEAL ([6]; 0.0156 kg/ha)
9.0: Herbicidal rating IPOHE ([2]; rate 0.0313 kg/ha) | Herbicidal rating IPOHE ([2]; rate 0.0625 kg/ha) | Preemergence herbicidal rating CHEAL ([6]; 0.0313 kg/ha) | Preemergence herbicidal rating CHEAL ([6]; 0.0625 kg/ha) | Preemergence herbicidal rating CHEAL ([6]; 0.1250 kg/ha) | Preemergence herbicidal rating CHEAL ([6]; 0.2500 kg/ha) | Herbicidal rating ABUTH (ABUTH (Velvetleaf); rate 0.0156 kg/ha) | Herbicidal rating ABUTH (ABUTH (Velvetleaf); rate 0.0313 kg/ha) | Herbicidal rating ABUTH (ABUTH (Velvetleaf); rate 0.0625 kg/ha)
7.0: herbicidal effect rating, MOOVA (MOOVA (Monochoria); 0.2500 kg/ha)
6.0: herbicidal effect rating, MOOVA (MOOVA (Monochoria); 0.0313 kg/ha) | herbicidal effect rating, MOOVA (MOOVA (Monochoria); 0.0625 kg/ha) | herbicidal effect rating, MOOVA (MOOVA (Monochoria); 0.1250 kg/ha)
